Assay results reported in patent US20050287085A1, “Composition for improving the physico-chemical properties of apatite-based materials, uses thereof and method using same” (DENTSPLY INTERNATIONAL INC., priority 2002, published 2005).

Assay: Substitution in treated hydroxyapatite, mass spectrometry
From the text: The analysis of the samples of treated hydroxyapatite is continued by mass spectrometry. The percentage of calcium substituted by titanium and the percentage of hydroxyl groups substituted by fluorine are compared with those obtained after bringing the hydroxyapatite into contact with the sodium fluoride solution.

Question: Which results are given for `[F-].[Na+]` [NaF, Sodium fluoride]?
Answer: Substitution of Ca by Ti: 0.3%; Substitution of OH by F: 52.0%
